The NIST ThermoML archive (doi:10.1016/j.fluid.2010.02.020)
Several values for one entry are separate records, joined by “and”; a condition that tells them apart may be missing. Equal entries are not always repeated. Numbers after ± are expanded uncertainties.

Conditions: for mass density: 101.33 kPa, Liquid, Vibrating tube method; for surface tension liquid-gas: Pendant drop shape

SMILES	mass density (293.15 K)	mass density (303.15 K)	mass density (313.15 K)	mass density (323.15 K)	mass density (333.15 K)	surface tension liquid-gas (333.2 K)	mass density (343.15 K)	mass density (353.15 K)	mass density (363.15 K)	mass density (373.15 K)	mass density (383.15 K)	mass density (393.15 K)	mass density (403.15 K)	mass density (413.15 K)	mass density (423.15 K)	mass density (433.15 K)	mass density (443.15 K)	mass density (453.15 K)	mass density (463.15 K)	mass density (473.15 K)	other results
CCCCCn1cc[n+](C)c1.O=S(=O)([N-]S(=O)(=O)C(F)(F)F)C(F)(F)F	1408.1 ± 5.7 kg/m3	1398.7 ± 5.6 kg/m3	1389.4 ± 5.6 kg/m3	1380.3 ± 5.5 kg/m3	1371.2 ± 5.5 kg/m3	28.3 ± 1 mN/m	1362.1 ± 5.5 kg/m3	1353.1 ± 5.4 kg/m3	1344 ± 5.4 kg/m3	1335 ± 5.4 kg/m3	1325.9 ± 5.3 kg/m3	1316.8 ± 5.3 kg/m3	1307.6 ± 5.3 kg/m3	1298.4 ± 5.2 kg/m3	1288.6 ± 5.2 kg/m3	1279.7 ± 5.1 kg/m3	1270.3 ± 5.1 kg/m3	1260.8 ± 5.1 kg/m3	1251.1 ± 5 kg/m3	1241.3 ± 5 kg/m3	surface tension liquid-gas (312.7 K): 29.5 ± 1.1 mN/m; surface tension liquid-gas (313.2 K): 30.5 ± 1.1 mN/m; surface tension liquid-gas (353.4 K): 27.3 ± 1 mN/m; surface tension liquid-gas (353.7 K): 27.2 ± 1 mN/m; surface tension liquid-gas (373.5 K): 26.3 ± 1 mN/m; surface tension liquid-gas (373.7 K): 26.6 ± 1 mN/m; surface tension liquid-gas (393.7 K): 24.7 ± 1 mN/m and 25.6 ± 1 mN/m; surface tension liquid-gas (413.6 K): 24.6 ± 1 mN/m; surface tension liquid-gas (413.8 K): 23.5 ± 1 mN/m; surface tension liquid-gas (433.5 K): 22.6 ± 1 mN/m; surface tension liquid-gas (433.7 K): 23.7 ± 1 mN/m; surface tension liquid-gas (453.5 K): 21.7 ± 1 mN/m; surface tension liquid-gas (453.6 K): 22.8 ± 1 mN/m; surface tension liquid-gas (473.3 K): 21.1 ± 1.1 mN/m; surface tension liquid-gas (473.6 K): 21.7 ± 1.1 mN/m; surface tension liquid-gas (493 K): 21.6 ± 1 mN/m; surface tension liquid-gas (493.2 K): 20.8 ± 1 mN/m; surface tension liquid-gas (512.9 K): 20.1 ± 1 mN/m
CCCn1cc[n+](C)c1.O=S(=O)([N-]S(=O)(=O)C(F)(F)F)C(F)(F)F	1480.5 ± 6 kg/m3	1470.8 ± 5.9 kg/m3	1461.1 ± 5.9 kg/m3	1451.5 ± 5.8 kg/m3	1441.9 ± 5.8 kg/m3		1432.4 ± 5.8 kg/m3	1422.9 ± 5.7 kg/m3	1413.5 ± 5.7 kg/m3	1404 ± 5.6 kg/m3	1394.5 ± 5.6 kg/m3	1384.9 ± 5.6 kg/m3	1375.3 ± 5.5 kg/m3	1365.6 ± 5.5 kg/m3	1355.8 ± 5.4 kg/m3	1345.9 ± 5.4 kg/m3	1335.9 ± 5.4 kg/m3	1325.8 ± 5.3 kg/m3	1315.6 ± 5.3 kg/m3	1305.1 ± 5.2 kg/m3	surface tension liquid-gas (312.9 K): 32.5 ± 1.1 mN/m; surface tension liquid-gas (333.6 K): 31.5 ± 1.1 mN/m; surface tension liquid-gas (353.9 K): 30.2 ± 1.1 mN/m; surface tension liquid-gas (373.5 K): 28.8 ± 1.1 mN/m; surface tension liquid-gas (374.2 K): 29.1 ± 1.1 mN/m; surface tension liquid-gas (393.5 K): 29.4 ± 1.1 mN/m; surface tension liquid-gas (394.5 K): 28 ± 1.1 mN/m; surface tension liquid-gas (413.6 K): 28.2 ± 1.1 mN/m; surface tension liquid-gas (414.9 K): 27.1 ± 1.1 mN/m; surface tension liquid-gas (433.3 K): 27.6 ± 1.1 mN/m; surface tension liquid-gas (435.2 K): 26.3 ± 1.1 mN/m; surface tension liquid-gas (453.2 K): 26.8 ± 1 mN/m; surface tension liquid-gas (455.5 K): 26.1 ± 1 mN/m; surface tension liquid-gas (473 K): 24.4 ± 1 mN/m; surface tension liquid-gas (475.7 K): 24.6 ± 1 mN/m
CCCCCCCCn1cc[n+](C)c1.O=S(=O)([N-]S(=O)(=O)C(F)(F)F)C(F)(F)F	1326.5 ± 5.3 kg/m3	1317.5 ± 5.3 kg/m3	1308.6 ± 5.3 kg/m3	1299.8 ± 5.2 kg/m3	1291.2 ± 5.2 kg/m3		1282.5 ± 5.1 kg/m3	1273.9 ± 5.1 kg/m3	1265.3 ± 5.1 kg/m3	1256.7 ± 5 kg/m3	1248.1 ± 5 kg/m3	1239.5 ± 5 kg/m3	1230.9 ± 4.9 kg/m3	1222.2 ± 4.9 kg/m3	1213.5 ± 4.9 kg/m3	1204.8 ± 4.8 kg/m3	1195.9 ± 4.8 kg/m3	1187 ± 4.8 kg/m3	1178 ± 4.7 kg/m3	1168.8 ± 4.7 kg/m3	surface tension liquid-gas (313 K): 29.2 ± 1.3 mN/m; surface tension liquid-gas (313.2 K): 28.5 ± 1.3 mN/m; surface tension liquid-gas (332.6 K): 27.4 ± 1.1 mN/m; surface tension liquid-gas (333.3 K): 28.2 ± 1.1 mN/m; surface tension liquid-gas (352.8 K): 26.1 ± 1.1 mN/m; surface tension liquid-gas (353.8 K): 27.3 ± 1.1 mN/m; surface tension liquid-gas (372.8 K): 25.2 ± 1.1 mN/m; surface tension liquid-gas (373.6 K): 26.3 ± 1.1 mN/m; surface tension liquid-gas (392.9 K): 24 ± 1.1 mN/m; surface tension liquid-gas (393.6 K): 25.3 ± 1.1 mN/m; surface tension liquid-gas (412.9 K): 23.1 ± 1.1 mN/m; surface tension liquid-gas (413.4 K): 24.3 ± 1.1 mN/m; surface tension liquid-gas (432.8 K): 22.1 ± 1.1 mN/m; surface tension liquid-gas (433.3 K): 23.2 ± 1.1 mN/m; surface tension liquid-gas (452.5 K): 21.5 ± 1 mN/m; surface tension liquid-gas (453.4 K): 22.1 ± 1 mN/m; surface tension liquid-gas (472.4 K): 19.7 ± 1 mN/m; surface tension liquid-gas (473.6 K): 20.7 ± 1 mN/m; surface tension liquid-gas (493 K): 20.1 ± 1 mN/m; surface tension liquid-gas (512.6 K): 19.2 ± 1 mN/m
CCCCCCCCCCCCCCn1cc[n+](C)c1.O=S(=O)([N-]S(=O)(=O)C(F)(F)F)C(F)(F)F				1193.1 ± 4.8 kg/m3	1184.8 ± 4.8 kg/m3	23.5 ± 1 mN/m	1176.6 ± 4.7 kg/m3	1168.5 ± 4.7 kg/m3	1160.5 ± 4.7 kg/m3	1152.4 ± 4.6 kg/m3	1144.4 ± 4.6 kg/m3	1136.4 ± 4.6 kg/m3	1128.4 ± 4.5 kg/m3	1120.4 ± 4.5 kg/m3	1112.4 ± 4.5 kg/m3	1104.3 ± 4.4 kg/m3	1096.2 ± 4.4 kg/m3	1088 ± 4.4 kg/m3	1079.7 ± 4.3 kg/m3	1071.4 ± 4.3 kg/m3	surface tension liquid-gas (312.8 K): 26.3 ± 1 mN/m; surface tension liquid-gas (323.3 K): 24.9 ± 1 mN/m; surface tension liquid-gas (333.9 K): 24.1 ± 1.1 mN/m; surface tension liquid-gas (353.3 K): 23.5 ± 1 mN/m; surface tension liquid-gas (354 K): 23.7 ± 1 mN/m; surface tension liquid-gas (373.5 K): 22.1 ± 1.1 mN/m; surface tension liquid-gas (374 K): 22.6 ± 1.1 mN/m; surface tension liquid-gas (393.6 K): 21.5 ± 1 mN/m; surface tension liquid-gas (394.7 K): 21.3 ± 1 mN/m; surface tension liquid-gas (413.5 K): 20.9 ± 1 mN/m; surface tension liquid-gas (414.9 K): 19.7 ± 1 mN/m; surface tension liquid-gas (433.6 K): 18.7 ± 1 mN/m; surface tension liquid-gas (434.8 K): 19.6 ± 1 mN/m; surface tension liquid-gas (453.6 K): 17.5 ± 1 mN/m; surface tension liquid-gas (454.5 K): 17.9 ± 1 mN/m; surface tension liquid-gas (473.5 K): 16.6 ± 1 mN/m; surface tension liquid-gas (474.5 K): 17 ± 1 mN/m; surface tension liquid-gas (493.4 K): 15.9 ± 1 mN/m; surface tension liquid-gas (512.9 K): 15.5 ± 1 mN/m
CCCCCC[n+]1ccn(C)c1.O=S(=O)([N-]S(=O)(=O)C(F)(F)F)C(F)(F)F	1378.1 ± 5.5 kg/m3	1368.9 ± 5.5 kg/m3	1359.8 ± 5.5 kg/m3	1350.8 ± 5.4 kg/m3	1341.8 ± 5.4 kg/m3	28.1 ± 1 mN/m	1332.9 ± 5.4 kg/m3	1324 ± 5.3 kg/m3	1315.2 ± 5.3 kg/m3	1306.3 ± 5.2 kg/m3	1297.4 ± 5.2 kg/m3	1288.5 ± 5.2 kg/m3	1279.6 ± 5.1 kg/m3	1270.6 ± 5.1 kg/m3	1261.6 ± 5.1 kg/m3	1252.4 ± 5 kg/m3	1243.2 ± 5 kg/m3	1233.9 ± 5 kg/m3	1224.5 ± 4.9 kg/m3	1214.9 ± 4.9 kg/m3	surface tension liquid-gas (313 K): 29.4 ± 1 mN/m; surface tension liquid-gas (353.4 K): 27.2 ± 1 mN/m; surface tension liquid-gas (373.4 K): 26.5 ± 1 mN/m; surface tension liquid-gas (393.5 K): 25.6 ± 1 mN/m; surface tension liquid-gas (413.3 K): 24.8 ± 1 mN/m; surface tension liquid-gas (433.6 K): 24.2 ± 1 mN/m; surface tension liquid-gas (453.4 K): 23.6 ± 1 mN/m; surface tension liquid-gas (473.4 K): 21.8 ± 1 mN/m; surface tension liquid-gas (493.2 K): 20.7 ± 1 mN/m; surface tension liquid-gas (512.7 K): 19.3 ± 1 mN/m; surface tension liquid-gas (532.4 K): 18.5 ± 1 mN/m
CCCCCCCn1cc[n+](C)c1.O=S(=O)([N-]S(=O)(=O)C(F)(F)F)C(F)(F)F	1349.5 ± 5.4 kg/m3	1340.4 ± 5.4 kg/m3	1331.5 ± 5.3 kg/m3	1322.6 ± 5.3 kg/m3	1313.8 ± 5.3 kg/m3		1305 ± 5.2 kg/m3	1296.3 ± 5.2 kg/m3	1287.6 ± 5.2 kg/m3	1278.9 ± 5.1 kg/m3	1270.1 ± 5.1 kg/m3	1261.4 ± 5.1 kg/m3	1252.6 ± 5 kg/m3	1243.8 ± 5 kg/m3	1235 ± 5 kg/m3	1226.1 ± 4.9 kg/m3	1217 ± 4.9 kg/m3	1208 ± 4.8 kg/m3	1198.7 ± 4.8 kg/m3	1189.4 ± 4.8 kg/m3	
